Where “and” joins values, the source holds several entries; their conditions need not be identical. Equal entries are not always repeated.
Key:
[1] = system: pyramidal cell layer of CA1, hippocampus slices; assay: hippocampus slice, provocation with bicuculline; design: species or system rat; details: bicuculline 50 μM alone, mean of 4 slices, one mean per series
From the text: (§1) Hippocampus slices were obtained from 11 adult male Sprague-Dawlay rats (Charles River Wiga, Sulzbach, Germany). Rats were kept under a reversed day-night cycle for 2 weeks prior start of the experiments, to allow recording of in-vitro activity from slices during the active phase of their circadian rhythm (Dimpfel et al., 1994, Dimpfel et al., 1995). Animals were exsanguinated under ether anaesthesia, the brain was removed in total and the hippocampal formation was isolated under microstereoscopic sight. The midsection of the hippocampus was fixed to the table of a vibrating microtome (Rhema Labortechnik, Hofheim, Germany) using a cyanoacrylate adhesive, submerged in chilled bicarbonate-buffered saline (artificial cerebro spinal fluid (ACSF) NaCl: 124 mM; KCl: 5 mM; CaCl2: 2 mM; MgSO4: 2 mM; NaHCO3: 26 mM; and glucose: 10 mM), and cut into slices of 400 μm thickness. All slices were preincubated for at least 1 h in carbogen ([…])-saturated ACSF (pH 7.4) in a prechamber before use (see also Dimpfel et al., 1991).
During the experiment the slices were held and treated in a special Superfusion chamber (List Electronics, Darmstadt, Germany) at 35° C. according to Haas et al., 1979 (see also: Schiff and Somjen, 1985). Four slices were used from one rat per day under one of the test conditions (control or various concentrations of the S1 compound). […]

[2] = system: pyramidal cell layer of CA1, hippocampus slices; assay: hippocampus slice, provocation with pentylenetetrazol; design: species or system rat; details: PTZ 50 μM alone
From the text: as §1
During the experiment the slices were held and treated in a special Superfusion chamber (List Electronics, Darmstadt, Germany) at 35° C. according to Haas et al., 1979 (see also: Schiff and Somjen, 1985). Four slices were used from one rat per day under one of the test conditions (control or various concentrations of the S1 compound). The preparation was superfused with artificial cerebrospinal fluid (ACSF) at 180-230 ml/h. Electrical stimulation (200 μA constant current pulses of 200 μs pulse width) of the Schaffer Collaterals within the […] area and recording of extracellular field potentials from the pyramidal cell layer of CA1 (Dimpfel et al., 1991) as shown in FIG. 4 and FIG. 5 was performed according to conventional electrophysiological methods using the “Labteam” Computer system and “NeuroTool” software package (Medisyst GmbH, Linden, Germany). Measurements were performed at 10 min intervals to avoid potentiation mechanisms. Four stimulations—each 20 seconds apart—were averaged for each time point. […]

| SMILES | population spike amplitude in % of ACSF value, Bicuculline 50 μM, mean (X) [1] | population spike amplitude in % of ACSF value, PTZ 50 μM, mean (X) ([2]; mean of 4 slices) | population spike amplitude, PTZ 50 μM, mean (X) ([2]; mean of 4 slices) | population spike amplitude in % of ACSF value, PTZ 50 μM ([2]; single slices) |
| --- | --- | --- | --- | --- |
| CN1CCc2cc3c(cc2[C@H]1[C@@H]1OC(=O)c2c1ccc1c2OCO1)OCO3 [Bicuculline] | 256.6% and 248.7% and 237.6% and 249.6% |  |  |  |
| C1CCc2nnnn2CC1 [PTZ, 6,7,8,9-tetrahydro-5h-tetrazolo(1,5-a)azepine] |  | 243.9% | −2854.9 μV | 254.2% and 244.7% and 232.8% and 243.7% |

Reference: US20090252786A1, “Use of a Biologically Active Blood Serum for the Treatment of a Disorder Characterized in a Reduced Function of a GABA Receptor” (priority 2008, published 2009)
